Measurements as given in publication PMC8213057, “Targeting ALK2: An Open Science Approach to Developing Therapeutics for the Treatment of Diffuse Intrinsic Pontine Glioma” (Journal of Medicinal Chemistry, 2020).
Where “and” joins values, the source holds several entries; their conditions need not be identical. Identical values can stand only once.

What was measured:
SIK2 = target: T1, SIK2 (Homo sapiens, UniProt Q9H0K1); assay: 375-member kinase panel; type: biochemical; conditions: Run 1, Run 2; for % enzyme activity: 1 μM; for remaining activity at 1 µM: read-out: % enzyme activity, 1 μM
T1 construct: purchased Reaction Biology Corporation
T1 sequence (Q9H0K1 whole entry): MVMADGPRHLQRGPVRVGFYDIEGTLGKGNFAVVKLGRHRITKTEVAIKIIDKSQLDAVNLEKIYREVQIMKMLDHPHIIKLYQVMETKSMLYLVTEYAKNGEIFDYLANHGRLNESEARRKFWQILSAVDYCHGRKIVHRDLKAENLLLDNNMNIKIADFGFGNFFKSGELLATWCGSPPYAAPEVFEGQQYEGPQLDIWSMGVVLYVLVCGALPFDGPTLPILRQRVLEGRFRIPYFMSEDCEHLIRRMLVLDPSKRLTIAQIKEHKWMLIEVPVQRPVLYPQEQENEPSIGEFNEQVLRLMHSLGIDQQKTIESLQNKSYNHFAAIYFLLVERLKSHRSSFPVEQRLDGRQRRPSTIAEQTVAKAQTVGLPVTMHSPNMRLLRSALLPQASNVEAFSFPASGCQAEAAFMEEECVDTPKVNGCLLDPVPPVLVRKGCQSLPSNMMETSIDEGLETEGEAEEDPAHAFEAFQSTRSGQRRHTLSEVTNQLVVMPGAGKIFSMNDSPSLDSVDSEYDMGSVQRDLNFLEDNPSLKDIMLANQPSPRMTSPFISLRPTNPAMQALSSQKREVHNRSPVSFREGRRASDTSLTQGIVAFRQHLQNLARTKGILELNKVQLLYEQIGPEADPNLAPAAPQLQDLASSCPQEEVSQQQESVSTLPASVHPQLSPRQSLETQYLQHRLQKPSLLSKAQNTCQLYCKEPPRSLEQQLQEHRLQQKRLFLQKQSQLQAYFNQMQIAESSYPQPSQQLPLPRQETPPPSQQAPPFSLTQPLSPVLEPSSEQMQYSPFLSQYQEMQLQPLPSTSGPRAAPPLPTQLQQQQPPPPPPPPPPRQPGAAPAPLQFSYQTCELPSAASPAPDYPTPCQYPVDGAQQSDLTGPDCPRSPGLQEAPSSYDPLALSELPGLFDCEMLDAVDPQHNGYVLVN

Aurora A = target: T2, Aurora A (Homo sapiens, UniProt O14965); conditions: 1 μM; Run 1, Run 2
T2 sequence (O14965 1-403): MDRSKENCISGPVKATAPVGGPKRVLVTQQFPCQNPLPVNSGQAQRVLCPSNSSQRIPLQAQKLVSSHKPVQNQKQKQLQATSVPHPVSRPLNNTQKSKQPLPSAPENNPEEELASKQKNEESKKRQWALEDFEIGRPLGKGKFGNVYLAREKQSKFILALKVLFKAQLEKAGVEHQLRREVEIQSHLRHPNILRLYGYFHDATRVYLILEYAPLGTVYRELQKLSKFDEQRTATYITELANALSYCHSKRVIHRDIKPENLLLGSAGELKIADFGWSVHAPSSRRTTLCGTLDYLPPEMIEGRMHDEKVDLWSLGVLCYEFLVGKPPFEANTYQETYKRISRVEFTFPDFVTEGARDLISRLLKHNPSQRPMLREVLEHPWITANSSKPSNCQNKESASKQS

Aurora C = target: T3, Aurora C (Homo sapiens, UniProt Q9UQB9); conditions: 1 μM; Run 1, Run 2
T3 sequence (Q9UQB9 1-309): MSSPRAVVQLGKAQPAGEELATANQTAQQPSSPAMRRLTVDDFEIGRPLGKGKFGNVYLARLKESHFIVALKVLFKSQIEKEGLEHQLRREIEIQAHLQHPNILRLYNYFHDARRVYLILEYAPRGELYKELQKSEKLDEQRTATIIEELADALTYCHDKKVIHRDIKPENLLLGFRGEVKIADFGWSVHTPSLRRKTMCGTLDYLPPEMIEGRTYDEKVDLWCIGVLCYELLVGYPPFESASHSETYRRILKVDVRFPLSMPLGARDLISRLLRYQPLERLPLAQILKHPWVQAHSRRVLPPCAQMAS

BRK = BRK (Homo sapiens, UniProt Q13882); conditions: 1 μM; Run 1, Run 2
Sequence of BRK (Q13882 whole entry): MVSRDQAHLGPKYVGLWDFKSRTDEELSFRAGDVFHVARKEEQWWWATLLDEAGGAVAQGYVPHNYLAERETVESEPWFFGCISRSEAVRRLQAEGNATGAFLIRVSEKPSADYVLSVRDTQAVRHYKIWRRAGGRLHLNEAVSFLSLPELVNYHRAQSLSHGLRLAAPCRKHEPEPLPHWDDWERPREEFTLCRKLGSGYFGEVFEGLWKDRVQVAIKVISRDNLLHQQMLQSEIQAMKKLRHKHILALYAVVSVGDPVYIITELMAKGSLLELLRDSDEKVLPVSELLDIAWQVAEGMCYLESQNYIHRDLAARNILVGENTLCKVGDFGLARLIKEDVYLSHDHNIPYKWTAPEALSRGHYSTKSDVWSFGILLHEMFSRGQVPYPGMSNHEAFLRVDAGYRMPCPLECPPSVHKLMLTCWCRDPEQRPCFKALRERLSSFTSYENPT

LCK = LCK (Homo sapiens, UniProt P06239); conditions: 1 μM; Run 1, Run 2
Sequence of LCK (P06239 whole entry): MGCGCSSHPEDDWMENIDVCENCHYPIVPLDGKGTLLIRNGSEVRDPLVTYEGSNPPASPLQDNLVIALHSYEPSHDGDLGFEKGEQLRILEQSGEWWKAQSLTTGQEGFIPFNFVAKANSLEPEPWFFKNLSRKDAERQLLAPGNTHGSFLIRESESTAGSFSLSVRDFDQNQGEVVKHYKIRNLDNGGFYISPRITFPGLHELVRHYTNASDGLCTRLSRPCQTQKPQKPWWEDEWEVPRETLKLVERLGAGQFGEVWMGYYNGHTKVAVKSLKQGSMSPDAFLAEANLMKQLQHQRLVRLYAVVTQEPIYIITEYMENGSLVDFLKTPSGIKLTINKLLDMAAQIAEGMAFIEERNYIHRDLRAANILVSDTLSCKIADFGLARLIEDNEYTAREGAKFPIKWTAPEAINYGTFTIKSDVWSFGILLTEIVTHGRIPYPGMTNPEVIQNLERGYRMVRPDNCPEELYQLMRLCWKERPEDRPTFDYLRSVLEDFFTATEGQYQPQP

PKCepsilon = target: T4, PKCepsilon (Homo sapiens, UniProt Q02156); conditions: 1 μM; Run 1, Run 2
T4 sequence (Q02156 1-737): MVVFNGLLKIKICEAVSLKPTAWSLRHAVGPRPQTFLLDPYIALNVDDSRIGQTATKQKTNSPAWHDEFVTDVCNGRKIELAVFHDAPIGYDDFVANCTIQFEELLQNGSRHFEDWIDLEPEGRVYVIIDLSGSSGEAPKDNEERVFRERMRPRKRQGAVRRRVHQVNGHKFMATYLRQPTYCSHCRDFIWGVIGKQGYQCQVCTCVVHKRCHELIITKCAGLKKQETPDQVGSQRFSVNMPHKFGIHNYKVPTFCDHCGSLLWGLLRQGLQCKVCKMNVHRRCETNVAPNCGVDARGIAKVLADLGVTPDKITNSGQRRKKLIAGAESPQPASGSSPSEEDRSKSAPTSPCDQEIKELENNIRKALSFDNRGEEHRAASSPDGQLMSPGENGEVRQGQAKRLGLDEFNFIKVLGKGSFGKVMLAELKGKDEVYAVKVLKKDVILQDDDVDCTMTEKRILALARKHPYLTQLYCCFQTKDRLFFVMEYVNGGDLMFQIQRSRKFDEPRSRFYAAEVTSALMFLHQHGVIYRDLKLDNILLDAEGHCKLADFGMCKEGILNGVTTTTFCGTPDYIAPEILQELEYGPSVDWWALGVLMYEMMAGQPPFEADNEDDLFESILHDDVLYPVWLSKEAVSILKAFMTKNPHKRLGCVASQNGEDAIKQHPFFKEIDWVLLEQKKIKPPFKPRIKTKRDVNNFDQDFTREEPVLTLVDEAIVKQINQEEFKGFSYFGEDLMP

PKMYT1 = target: T5, PKMYT1 (Homo sapiens, UniProt Q99640); conditions: 1 μM; Run 1, Run 2
T5 sequence (Q99640 1-499): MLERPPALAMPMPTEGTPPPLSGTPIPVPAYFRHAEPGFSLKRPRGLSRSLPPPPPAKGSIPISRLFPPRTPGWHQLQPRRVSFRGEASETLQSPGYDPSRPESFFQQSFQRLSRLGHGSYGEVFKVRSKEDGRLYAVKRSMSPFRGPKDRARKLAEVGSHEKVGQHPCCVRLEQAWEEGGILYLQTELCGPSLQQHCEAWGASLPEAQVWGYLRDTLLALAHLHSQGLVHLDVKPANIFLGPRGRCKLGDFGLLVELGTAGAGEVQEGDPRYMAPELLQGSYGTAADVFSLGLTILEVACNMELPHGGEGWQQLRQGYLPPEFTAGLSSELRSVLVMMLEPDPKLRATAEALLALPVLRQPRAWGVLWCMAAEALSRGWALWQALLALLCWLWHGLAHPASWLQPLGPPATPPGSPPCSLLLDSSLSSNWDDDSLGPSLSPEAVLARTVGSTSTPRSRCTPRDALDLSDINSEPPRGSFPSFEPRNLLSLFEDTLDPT

CAMK1g = CAMK1g (Homo sapiens, UniProt Q96NX5); assay: biochemical; conditions: read-out: % enzyme activity, 1 μM; Run 1, Run 2
Sequence of CAMK1g (Q96NX5 whole entry): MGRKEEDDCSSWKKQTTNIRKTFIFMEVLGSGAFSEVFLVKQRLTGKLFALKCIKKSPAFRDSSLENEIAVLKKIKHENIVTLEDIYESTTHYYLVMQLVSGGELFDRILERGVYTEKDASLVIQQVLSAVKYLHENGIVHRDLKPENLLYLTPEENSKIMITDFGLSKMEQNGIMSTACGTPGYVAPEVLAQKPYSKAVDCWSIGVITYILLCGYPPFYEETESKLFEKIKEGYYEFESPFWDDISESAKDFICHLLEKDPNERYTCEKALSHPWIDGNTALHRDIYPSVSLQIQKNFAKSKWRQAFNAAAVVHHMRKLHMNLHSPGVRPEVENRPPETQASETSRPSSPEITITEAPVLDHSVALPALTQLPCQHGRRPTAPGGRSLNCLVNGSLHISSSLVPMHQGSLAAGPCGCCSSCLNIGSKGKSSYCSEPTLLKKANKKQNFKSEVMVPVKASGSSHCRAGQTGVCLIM

JAK1 = JAK1 (Homo sapiens, UniProt P23458); assay: biochemical; conditions: read-out: % enzyme activity, 1 μM; Run 1, Run 2
Sequence of JAK1 (P23458 whole entry): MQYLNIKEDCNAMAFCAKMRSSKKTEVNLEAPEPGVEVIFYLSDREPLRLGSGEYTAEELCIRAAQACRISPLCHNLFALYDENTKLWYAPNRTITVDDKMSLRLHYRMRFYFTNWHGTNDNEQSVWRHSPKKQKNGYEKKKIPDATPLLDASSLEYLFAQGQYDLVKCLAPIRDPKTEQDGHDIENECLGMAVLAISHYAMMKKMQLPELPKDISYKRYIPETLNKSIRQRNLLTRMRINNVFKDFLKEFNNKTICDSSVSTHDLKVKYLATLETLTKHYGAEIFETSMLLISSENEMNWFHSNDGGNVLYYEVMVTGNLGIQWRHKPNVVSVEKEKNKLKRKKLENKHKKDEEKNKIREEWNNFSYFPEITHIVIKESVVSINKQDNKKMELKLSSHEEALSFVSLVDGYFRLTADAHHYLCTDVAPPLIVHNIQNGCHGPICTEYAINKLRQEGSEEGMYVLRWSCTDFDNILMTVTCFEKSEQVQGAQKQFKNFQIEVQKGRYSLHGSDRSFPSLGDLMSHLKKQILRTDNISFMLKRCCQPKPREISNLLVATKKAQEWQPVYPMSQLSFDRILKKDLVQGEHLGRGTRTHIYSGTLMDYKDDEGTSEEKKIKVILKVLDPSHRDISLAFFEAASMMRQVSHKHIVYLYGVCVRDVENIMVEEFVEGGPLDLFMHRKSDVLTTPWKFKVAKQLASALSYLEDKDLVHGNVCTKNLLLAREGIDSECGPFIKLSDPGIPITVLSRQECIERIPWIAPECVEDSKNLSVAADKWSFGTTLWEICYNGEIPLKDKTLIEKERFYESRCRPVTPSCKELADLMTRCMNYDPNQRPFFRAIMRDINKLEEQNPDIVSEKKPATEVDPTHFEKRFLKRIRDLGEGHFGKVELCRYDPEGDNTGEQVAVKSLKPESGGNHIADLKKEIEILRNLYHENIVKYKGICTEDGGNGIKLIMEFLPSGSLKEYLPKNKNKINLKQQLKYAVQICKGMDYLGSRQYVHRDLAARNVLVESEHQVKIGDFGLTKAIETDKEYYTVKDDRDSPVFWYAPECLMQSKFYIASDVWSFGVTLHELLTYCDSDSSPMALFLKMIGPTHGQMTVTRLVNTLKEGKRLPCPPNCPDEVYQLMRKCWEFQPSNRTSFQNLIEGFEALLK

PAK2 = PAK2 (Homo sapiens, UniProt Q13177); assay: biochemical; conditions: read-out: % enzyme activity, 1 μM; Run 1, Run 2
Sequence of PAK2 (Q13177 whole entry): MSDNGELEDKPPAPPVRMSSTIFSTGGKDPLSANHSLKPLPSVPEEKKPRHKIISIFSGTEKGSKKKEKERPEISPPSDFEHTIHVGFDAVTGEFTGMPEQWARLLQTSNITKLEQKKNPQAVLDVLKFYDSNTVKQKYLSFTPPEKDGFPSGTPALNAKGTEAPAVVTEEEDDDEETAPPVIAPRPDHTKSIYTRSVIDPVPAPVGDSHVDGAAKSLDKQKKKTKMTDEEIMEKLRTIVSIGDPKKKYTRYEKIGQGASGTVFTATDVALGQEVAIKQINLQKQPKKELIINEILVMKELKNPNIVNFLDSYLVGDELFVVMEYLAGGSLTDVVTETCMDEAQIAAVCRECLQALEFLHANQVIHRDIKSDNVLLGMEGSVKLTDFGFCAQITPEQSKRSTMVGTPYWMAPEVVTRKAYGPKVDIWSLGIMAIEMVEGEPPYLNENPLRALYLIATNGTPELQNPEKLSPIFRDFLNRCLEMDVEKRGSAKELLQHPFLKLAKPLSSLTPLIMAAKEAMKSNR

STK38/NDR1 = STK38/NDR1 (Homo sapiens, UniProt Q15208); assay: biochemical; conditions: read-out: % enzyme activity, 1 μM; Run 1, Run 2
Sequence of STK38/NDR1 (Q15208 whole entry): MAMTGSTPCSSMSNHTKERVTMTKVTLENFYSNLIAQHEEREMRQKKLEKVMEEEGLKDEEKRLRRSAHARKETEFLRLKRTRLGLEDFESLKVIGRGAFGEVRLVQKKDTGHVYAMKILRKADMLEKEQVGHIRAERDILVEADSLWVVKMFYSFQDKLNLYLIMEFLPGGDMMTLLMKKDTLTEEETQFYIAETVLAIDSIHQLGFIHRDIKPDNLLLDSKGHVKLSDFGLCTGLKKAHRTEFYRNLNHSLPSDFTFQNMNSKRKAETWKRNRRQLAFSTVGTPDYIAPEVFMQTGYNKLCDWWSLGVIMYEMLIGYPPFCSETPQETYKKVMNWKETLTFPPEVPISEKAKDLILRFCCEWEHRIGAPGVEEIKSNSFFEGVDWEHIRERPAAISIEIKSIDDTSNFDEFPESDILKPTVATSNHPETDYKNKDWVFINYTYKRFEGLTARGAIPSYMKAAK

TAK1 = target: T6, TAK1 (Homo sapiens, UniProt O43318); assay: biochemical; conditions: read-out: % enzyme activity, 1 μM; Run 1, Run 2
T6 sequence (O43318 1-303 limits assumed): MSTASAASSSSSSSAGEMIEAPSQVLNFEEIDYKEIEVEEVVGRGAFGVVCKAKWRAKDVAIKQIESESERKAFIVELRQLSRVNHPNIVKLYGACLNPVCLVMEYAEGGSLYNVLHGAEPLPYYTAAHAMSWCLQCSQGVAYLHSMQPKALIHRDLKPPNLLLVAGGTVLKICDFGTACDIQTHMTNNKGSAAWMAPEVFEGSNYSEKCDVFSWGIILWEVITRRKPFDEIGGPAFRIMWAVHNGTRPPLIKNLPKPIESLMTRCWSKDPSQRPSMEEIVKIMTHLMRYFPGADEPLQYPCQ

| Compound | % enzyme activity at 1 μM (TNK1) | % enzyme activity (SIK2) | remaining activity at 1 µM (SIK2) | % enzyme activity (Aurora A) | % enzyme activity (Aurora C) | % enzyme activity (BRK) | % enzyme activity (LCK) | % enzyme activity (PKCepsilon) | % enzyme activity (PKMYT1) | remaining activity at 1 µM (CAMK1g) | remaining activity at 1 µM (JAK1) | remaining activity at 1 µM (PAK2) | remaining activity at 1 µM (STK38/NDR1) | remaining activity at 1 µM (TAK1) |
| --- | --- | --- | --- | --- | --- | --- | --- | --- | --- | --- | --- | --- | --- | --- |
| COc1cc(-c2cncc(-c3ccc(N4CCN(C)CC4)cc3)c2C)cc(F)c1C(N)=O [Compound 26a, 2-Fluoro-6-methoxy-4-(4-methyl-5-(4-(4-methylpiperazin-1-yl)phenyl)pyridin-3-yl)benzamide] | 105% and 99.5% | 30.68% | 32% | 97.24% | 103.00% | 58.28% | 92.53% | 96.64% | 100.09% | 102% | 102% | 101% | 91.9% | 98.5% |
| COc1cc(-c2cncc(-c3ccc(N4C[C@@H](C)N(C)[C@@H](C)C4)cc3)c2C)cc(F)c1C(N)=O [Compound 26c, 2-Fluoro-6-methoxy-4-(4-methyl-5-(4-((3R,5S)-3,4,5-trimethylpiperazin-1-yl)phenyl)pyridin-3-yl)benzamide] | 98.6% and 98.2% | 43.50% | 43.9% | 101.37% | 99.34% | 73.52% | 98.93% | 105.76% | 92.38% | 108% | 101% | 104% | 96.7% | 99.1% |
